Experimental data reported in the NIST ThermoML archive (doi:10.1016/j.jct.2004.12.008).
± gives the expanded uncertainty stated by the source.

Experiment: xn = mol fraction of the nth substance listed
Conditions: 101 kPa, Liquid

O=[N+]([O-])c1ccccc1 [nitrobenzene] + Cc1ccccc1
Conditions | mass density [kg/m3]
293.15 K, x2 = 0 | 1202.95 ± 2.3
293.15 K, x2 = 0.0629 | 1181.81 ± 2.1
293.15 K, x2 = 0.1476 | 1153.37 ± 1.9
293.15 K, x2 = 0.2138 | 1131.14 ± 1.8
293.15 K, x2 = 0.2787 | 1109.35 ± 1.7
293.15 K, x2 = 0.3587 | 1082.5 ± 1.5
293.15 K, x2 = 0.4142 | 1063.89 ± 1.4
293.15 K, x2 = 0.4831 | 1040.77 ± 1.3
293.15 K, x2 = 0.5232 | 1027.31 ± 1.2
293.15 K, x2 = 0.5771 | 1009.22 ± 1.1
293.15 K, x2 = 0.6321 | 990.75 ± 1.2
293.15 K, x2 = 0.6832 | 973.59 ± 1.4
293.15 K, x2 = 0.7234 | 960.08 ± 1.5
293.15 K, x2 = 0.8032 | 933.21 ± 1.8
293.15 K, x2 = 0.8562 | 915.34 ± 2
293.15 K, x2 = 0.9213 | 893.37 ± 2.2
303.15 K, x2 = 0 | 1193.56 ± 2.2
303.15 K, x2 = 0.0567 | 1174.37 ± 2.1
303.15 K, x2 = 0.1332 | 1148.52 ± 1.9
303.15 K, x2 = 0.185 | 1131.03 ± 1.8
303.15 K, x2 = 0.2304 | 1115.73 ± 1.7
303.15 K, x2 = 0.2798 | 1099.1 ± 1.6
303.15 K, x2 = 0.3674 | 1069.64 ± 1.4
303.15 K, x2 = 0.4026 | 1057.82 ± 1.4
303.15 K, x2 = 0.4656 | 1036.69 ± 1.2
303.15 K, x2 = 0.5072 | 1022.73 ± 1.2
303.15 K, x2 = 0.5782 | 998.94 ± 1.1
303.15 K, x2 = 0.6576 | 972.35 ± 1.3
303.15 K, x2 = 0.7235 | 950.27 ± 1.6
303.15 K, x2 = 0.7965 | 925.82 ± 1.8
303.15 K, x2 = 0.8643 | 903.09 ± 2.1
303.15 K, x2 = 0.9354 | 879.23 ± 2.3
313.15 K, x2 = 0 | 1183.37 ± 2.1
313.15 K, x2 = 0.0674 | 1160.46 ± 2
313.15 K, x2 = 0.1534 | 1131.33 ± 1.8
313.15 K, x2 = 0.1978 | 1116.33 ± 1.7
313.15 K, x2 = 0.2576 | 1096.15 ± 1.6
313.15 K, x2 = 0.3254 | 1073.34 ± 1.4
313.15 K, x2 = 0.3789 | 1055.38 ± 1.3
313.15 K, x2 = 0.4577 | 1028.98 ± 1.2
313.15 K, x2 = 0.5067 | 1012.59 ± 1.1
313.15 K, x2 = 0.5564 | 996 ± 1.1
313.15 K, x2 = 0.6134 | 976.98 ± 1.2
313.15 K, x2 = 0.674 | 956.78 ± 1.5
313.15 K, x2 = 0.7435 | 933.64 ± 1.7
313.15 K, x2 = 0.8134 | 910.37 ± 2
313.15 K, x2 = 0.865 | 893.2 ± 2.1
313.15 K, x2 = 0.9134 | 877.09 ± 2.3
323.15 K, x2 = 0 | 1172.38 ± 2
323.15 K, x2 = 0.0479 | 1156.07 ± 1.9
323.15 K, x2 = 0.1289 | 1128.59 ± 1.7
323.15 K, x2 = 0.1874 | 1108.81 ± 1.6
323.15 K, x2 = 0.2671 | 1081.99 ± 1.4
323.15 K, x2 = 0.3371 | 1058.51 ± 1.3
323.15 K, x2 = 0.3961 | 1038.77 ± 1.2
323.15 K, x2 = 0.4628 | 1016.54 ± 1.1
323.15 K, x2 = 0.5342 | 992.79 ± 1.1
323.15 K, x2 = 0.6056 | 969.11 ± 1.3
323.15 K, x2 = 0.6854 | 942.7 ± 1.6
323.15 K, x2 = 0.7245 | 929.78 ± 1.7
323.15 K, x2 = 0.8056 | 903.01 ± 2
323.15 K, x2 = 0.8543 | 886.94 ± 2.2
323.15 K, x2 = 0.8965 | 873.03 ± 2.3
323.15 K, x2 = 0.9423 | 857.93 ± 2.5
333.15 K, x2 = 0 | 1160.59 ± 1.9
333.15 K, x2 = 0.0575 | 1141.04 ± 1.8
333.15 K, x2 = 0.1435 | 1111.97 ± 1.6
333.15 K, x2 = 0.2345 | 1081.38 ± 1.4
333.15 K, x2 = 0.2978 | 1060.21 ± 1.3
333.15 K, x2 = 0.3534 | 1041.68 ± 1.2
333.15 K, x2 = 0.4213 | 1019.15 ± 1.1
333.15 K, x2 = 0.4896 | 996.55 ± 0.98
333.15 K, x2 = 0.5634 | 972.23 ± 1.2
333.15 K, x2 = 0.6233 | 952.54 ± 1.4
333.15 K, x2 = 0.6856 | 932.12 ± 1.6
333.15 K, x2 = 0.7435 | 913.17 ± 1.9
333.15 K, x2 = 0.7947 | 896.44 ± 2
333.15 K, x2 = 0.8634 | 874.02 ± 2.3
333.15 K, x2 = 0.9067 | 859.9 ± 2.4
333.15 K, x2 = 0.9424 | 848.26 ± 2.5
343.15 K, x2 = 0 | 1148 ± 1.9
343.15 K, x2 = 0.0523 | 1130.3 ± 1.7
343.15 K, x2 = 0.1389 | 1101.17 ± 1.5
343.15 K, x2 = 0.1924 | 1083.27 ± 1.4
343.15 K, x2 = 0.2684 | 1057.97 ± 1.2
343.15 K, x2 = 0.3289 | 1037.94 ± 1.1
343.15 K, x2 = 0.3889 | 1018.15 ± 1
343.15 K, x2 = 0.4521 | 997.4 ± 0.94
343.15 K, x2 = 0.5123 | 977.7 ± 1.1
343.15 K, x2 = 0.5931 | 951.38 ± 1.4
343.15 K, x2 = 0.6532 | 931.86 ± 1.6
343.15 K, x2 = 0.7234 | 909.14 ± 1.9
343.15 K, x2 = 0.7923 | 886.89 ± 2.1
343.15 K, x2 = 0.8534 | 867.19 ± 2.3
343.15 K, x2 = 0.8811 | 858.27 ± 2.4
343.15 K, x2 = 0.9421 | 838.64 ± 2.6
353.15 K, x2 = 0 | 1134.61 ± 1.8
353.15 K, x2 = 0.0442 | 1119.76 ± 1.6
353.15 K, x2 = 0.1247 | 1092.87 ± 1.4
353.15 K, x2 = 0.1842 | 1073.14 ± 1.3
353.15 K, x2 = 0.2479 | 1052.11 ± 1.2
353.15 K, x2 = 0.2943 | 1036.87 ± 1.1
353.15 K, x2 = 0.3479 | 1019.33 ± 0.99
353.15 K, x2 = 0.4109 | 998.83 ± 0.89
353.15 K, x2 = 0.4671 | 980.61 ± 1.1
353.15 K, x2 = 0.5239 | 962.27 ± 1.3
353.15 K, x2 = 0.5791 | 944.5 ± 1.4
353.15 K, x2 = 0.6321 | 927.5 ± 1.6
353.15 K, x2 = 0.7913 | 876.69 ± 2.2
353.15 K, x2 = 0.8423 | 860.48 ± 2.3
353.15 K, x2 = 0.8742 | 850.36 ± 2.4
353.15 K, x2 = 0.9311 | 832.32 ± 2.6
